Source: patent US12043599B2, “Herbicidal compounds” (SYNGENTA PARTICIPATIONS AG, priority 2018, dated 2024)

Legend:
Type in all cases: in vivo
Details in all cases: 250 g/h, evaluated after 13 days
Setaria faberi (SETFA) [1] = experiment: Post-emergence herbicidal glasshouse test, percentage damage
Experimental: (§1) Seeds of a variety of test species are sown in standard soil in pots (Lolium perenne (LOLPE), Setaria faberi (SETFA), Alopecurus myosuroides (ALOMY), Echinochloa crus-galli (ECHCG), Avena fatua (AVEFA)). After cultivation for one day (pre-emergence) or after 8 days cultivation (post-emergence) under controlled conditions in a glasshouse (at 24/16° C., day/night; 14 hours light; 65% humidity), the plants are sprayed with an aqueous spray solution derived from the formulation of the technical active ingredient in acetone/water (50:50) solution containing 0.5% Tween 20 (polyoxyethelyene sorbitan monolaurate, CAS RN 9005-64-5). Compounds are applied at […]. The test plants are then grown in a glasshouse under controlled conditions in a glasshouse (at 24/16° C., day/night; 14 hours light; 65% humidity) and watered twice daily. After 13 days for pre and post-emergence, the test is evaluated for the percentage damage caused to the plant. The biological activities are shown in the following table on a five point scale (5=80-100%; 4=60-79%; 3=40-59%; 2=20-39%; 1=0-19%).
Using procedures outlines above, wheat and barley crop plants and a weed species (SETFA) are treated post-emergence with compound A11 of the present invention or comparator compound C1 (Compound A-38 from WO2014/096289) at the application rates indicated. The compounds were also applied to wheat in conjunction with the safener compound cloquintocet-mexyl (CQC) at 50 g/ha.

Avena fatua (AVEFA) [2] = experiment: Pre-emergence herbicidal glasshouse test, percentage damage
Experimental: as §1

Setaria faberi (SETFA) [3] = experiment: as above
Experimental: as §1

[4] = tested on: Alopecurus myosuroides (ALOMY); experiment: as above
Experimental: as §1

Lolium perenne (LOLPE) [5] = experiment: as above
Experimental: as §1

[6] = tested on: Echinochloa crus-galli (ECHCG); experiment: as above
Experimental: as §1

Avena fatua (AVEFA) [7] = experiment: Post-emergence herbicidal glasshouse test, percentage damage
Experimental: as §1

Lolium perenne (LOLPE) [8] = experiment: as above
Experimental: as §1

[9] = tested on: Echinochloa crus-galli (ECHCG); experiment: as above
Experimental: as §1

CC#Cc1cc(C)c(C2=C(OC(=O)OC)CC3(CCN(C(=O)C4=NOC(C)(C)C4)CC3)CC2=O)c(C)c1 [Compound P39]
5 (5=80-100%): SETFA POST percentage damage (five point scale) (Setaria faberi (SETFA) [1]) | AVEFA PRE percentage damage (five point scale) (Avena fatua (AVEFA) [2]) | SETFA PRE percentage damage (five point scale) (Setaria faberi (SETFA) [3]) | ALOMY PRE percentage damage (five point scale) [4] | LOLPE PRE percentage damage (five point scale) (Lolium perenne (LOLPE) [5]) | ECHCG PRE percentage damage (five point scale) [6] | AVEFA POST percentage damage (five point scale) (Avena fatua (AVEFA) [7]) | LOLPE POST percentage damage (five point scale) (Lolium perenne (LOLPE) [8]) | ECHCG POST percentage damage (five point scale) [9]

CC#Cc1cc(C)c(C2C(=O)CC3(CCN(C(=O)c4ccc(OC)nn4)CC3)CC2=O)c(C)c1 [Compound A132]
5 (5=80-100%): SETFA POST percentage damage (five point scale) (Setaria faberi (SETFA) [1]) | AVEFA PRE percentage damage (five point scale) (Avena fatua (AVEFA) [2]) | SETFA PRE percentage damage (five point scale) (Setaria faberi (SETFA) [3]) | LOLPE PRE percentage damage (five point scale) (Lolium perenne (LOLPE) [5]) | ECHCG PRE percentage damage (five point scale) [6] | AVEFA POST percentage damage (five point scale) (Avena fatua (AVEFA) [7]) | LOLPE POST percentage damage (five point scale) (Lolium perenne (LOLPE) [8]) | ECHCG POST percentage damage (five point scale) [9]

CC#Cc1cc(C)c(C2=C(OC(=O)c3cccnc3)CC3(CCN(C(=O)c4cccnc4)CC3)CC2=O)c(C)c1 [Compound P36]
4 (4=60-79%): AVEFA PRE percentage damage (five point scale) (Avena fatua (AVEFA) [2])
5 (5=80-100%): SETFA POST percentage damage (five point scale) (Setaria faberi (SETFA) [1]) | SETFA PRE percentage damage (five point scale) (Setaria faberi (SETFA) [3]) | LOLPE PRE percentage damage (five point scale) (Lolium perenne (LOLPE) [5]) | ECHCG PRE percentage damage (five point scale) [6] | AVEFA POST percentage damage (five point scale) (Avena fatua (AVEFA) [7]) | LOLPE POST percentage damage (five point scale) (Lolium perenne (LOLPE) [8]) | ECHCG POST percentage damage (five point scale) [9]

CC#Cc1cc(C)c(C2C(=O)CC3(CCN(C(=O)c4cc(OC)ccn4)CC3)CC2=O)c(C)c1 [Compound A120]
5 (5=80-100%): SETFA POST percentage damage (five point scale) (Setaria faberi (SETFA) [1]) | SETFA PRE percentage damage (five point scale) (Setaria faberi (SETFA) [3]) | LOLPE PRE percentage damage (five point scale) (Lolium perenne (LOLPE) [5]) | ECHCG PRE percentage damage (five point scale) [6] | AVEFA POST percentage damage (five point scale) (Avena fatua (AVEFA) [7]) | LOLPE POST percentage damage (five point scale) (Lolium perenne (LOLPE) [8]) | ECHCG POST percentage damage (five point scale) [9]
4 (4=60-79%): AVEFA PRE percentage damage (five point scale) (Avena fatua (AVEFA) [2])

CC#Cc1cc(C)c(C2C(=O)CC3(CCN(C(=O)C4CCOC4)CC3)CC2=O)c(C)c1 (stereo not drawn) [Compound A129]
5 (5=80-100%): SETFA POST percentage damage (five point scale) (Setaria faberi (SETFA) [1]) | AVEFA PRE percentage damage (five point scale) (Avena fatua (AVEFA) [2]) | SETFA PRE percentage damage (five point scale) (Setaria faberi (SETFA) [3]) | LOLPE PRE percentage damage (five point scale) (Lolium perenne (LOLPE) [5]) | ECHCG PRE percentage damage (five point scale) [6] | AVEFA POST percentage damage (five point scale) (Avena fatua (AVEFA) [7]) | LOLPE POST percentage damage (five point scale) (Lolium perenne (LOLPE) [8]) | ECHCG POST percentage damage (five point scale) [9]

CC#Cc1cc(C)c(C2C(=O)CC3(CCN(C(=O)CCOC)CC3)CC2=O)c(C)c1 [Compound A124]
5 (5=80-100%): SETFA POST percentage damage (five point scale) (Setaria faberi (SETFA) [1]) | AVEFA PRE percentage damage (five point scale) (Avena fatua (AVEFA) [2]) | SETFA PRE percentage damage (five point scale) (Setaria faberi (SETFA) [3]) | LOLPE PRE percentage damage (five point scale) (Lolium perenne (LOLPE) [5]) | ECHCG PRE percentage damage (five point scale) [6] | AVEFA POST percentage damage (five point scale) (Avena fatua (AVEFA) [7]) | LOLPE POST percentage damage (five point scale) (Lolium perenne (LOLPE) [8]) | ECHCG POST percentage damage (five point scale) [9]

CC#Cc1cc(C)c(C2C(=O)CC3(CCN(C(=O)c4cocn4)CC3)CC2=O)c(C)c1 [Compound A123]
5 (5=80-100%): SETFA POST percentage damage (five point scale) (Setaria faberi (SETFA) [1]) | AVEFA PRE percentage damage (five point scale) (Avena fatua (AVEFA) [2]) | SETFA PRE percentage damage (five point scale) (Setaria faberi (SETFA) [3]) | LOLPE PRE percentage damage (five point scale) (Lolium perenne (LOLPE) [5]) | ECHCG PRE percentage damage (five point scale) [6] | AVEFA POST percentage damage (five point scale) (Avena fatua (AVEFA) [7]) | LOLPE POST percentage damage (five point scale) (Lolium perenne (LOLPE) [8]) | ECHCG POST percentage damage (five point scale) [9]

CC#Cc1cc(C)c(C2C(=O)CC3(CCN(S(=O)(=O)c4cnccn4)CC3)CC2=O)c(C)c1 [Compound A107]
5 (5=80-100%): SETFA POST percentage damage (five point scale) (Setaria faberi (SETFA) [1]) | LOLPE PRE percentage damage (five point scale) (Lolium perenne (LOLPE) [5]) | AVEFA POST percentage damage (five point scale) (Avena fatua (AVEFA) [7]) | LOLPE POST percentage damage (five point scale) (Lolium perenne (LOLPE) [8]) | ECHCG POST percentage damage (five point scale) [9]
3 (3=40-59%): ECHCG PRE percentage damage (five point scale) [6]
4 (4=60-79%): AVEFA PRE percentage damage (five point scale) (Avena fatua (AVEFA) [2]) | SETFA PRE percentage damage (five point scale) (Setaria faberi (SETFA) [3])

CC#Cc1cc(C)c(C2C(=O)CC3(CCN(C(=O)c4cnco4)CC3)CC2=O)c(C)c1 [Compound A116]
5 (5=80-100%): SETFA POST percentage damage (five point scale) (Setaria faberi (SETFA) [1]) | AVEFA PRE percentage damage (five point scale) (Avena fatua (AVEFA) [2]) | SETFA PRE percentage damage (five point scale) (Setaria faberi (SETFA) [3]) | LOLPE PRE percentage damage (five point scale) (Lolium perenne (LOLPE) [5]) | ECHCG PRE percentage damage (five point scale) [6] | AVEFA POST percentage damage (five point scale) (Avena fatua (AVEFA) [7]) | LOLPE POST percentage damage (five point scale) (Lolium perenne (LOLPE) [8]) | ECHCG POST percentage damage (five point scale) [9]

CC#Cc1cc(C)c(C2C(=O)CC3(CCN(C(=O)c4cccc(OC)n4)CC3)CC2=O)c(C)c1 [Compound A110]
5 (5=80-100%): SETFA POST percentage damage (five point scale) (Setaria faberi (SETFA) [1]) | AVEFA PRE percentage damage (five point scale) (Avena fatua (AVEFA) [2]) | SETFA PRE percentage damage (five point scale) (Setaria faberi (SETFA) [3]) | LOLPE PRE percentage damage (five point scale) (Lolium perenne (LOLPE) [5]) | ECHCG PRE percentage damage (five point scale) [6] | AVEFA POST percentage damage (five point scale) (Avena fatua (AVEFA) [7]) | LOLPE POST percentage damage (five point scale) (Lolium perenne (LOLPE) [8]) | ECHCG POST percentage damage (five point scale) [9]

CC#Cc1cc(C)c(C2C(=O)CC3(CCN(C(=O)c4nn(C)nc4C)CC3)CC2=O)c(C)c1 [Compound A134]
5 (5=80-100%): SETFA POST percentage damage (five point scale) (Setaria faberi (SETFA) [1]) | AVEFA PRE percentage damage (five point scale) (Avena fatua (AVEFA) [2]) | SETFA PRE percentage damage (five point scale) (Setaria faberi (SETFA) [3]) | LOLPE PRE percentage damage (five point scale) (Lolium perenne (LOLPE) [5]) | ECHCG PRE percentage damage (five point scale) [6] | AVEFA POST percentage damage (five point scale) (Avena fatua (AVEFA) [7]) | LOLPE POST percentage damage (five point scale) (Lolium perenne (LOLPE) [8]) | ECHCG POST percentage damage (five point scale) [9]

CC#Cc1cc(C)c(C2C(=O)CC3(CCN(C(=O)C4CCCO4)CC3)CC2=O)c(C)c1 (stereo not drawn) [Compound A139]
5 (5=80-100%): SETFA POST percentage damage (five point scale) (Setaria faberi (SETFA) [1]) | AVEFA PRE percentage damage (five point scale) (Avena fatua (AVEFA) [2]) | SETFA PRE percentage damage (five point scale) (Setaria faberi (SETFA) [3]) | LOLPE PRE percentage damage (five point scale) (Lolium perenne (LOLPE) [5]) | ECHCG PRE percentage damage (five point scale) [6] | AVEFA POST percentage damage (five point scale) (Avena fatua (AVEFA) [7]) | LOLPE POST percentage damage (five point scale) (Lolium perenne (LOLPE) [8]) | ECHCG POST percentage damage (five point scale) [9]

CC#Cc1cc(C)c(C2=C(OC(=O)OC)CC3(CCN(C(=O)c4ccncc4)CC3)CC2=O)c(C)c1 [Compound P45]
5 (5=80-100%): SETFA POST percentage damage (five point scale) (Setaria faberi (SETFA) [1]) | AVEFA PRE percentage damage (five point scale) (Avena fatua (AVEFA) [2]) | SETFA PRE percentage damage (five point scale) (Setaria faberi (SETFA) [3]) | LOLPE PRE percentage damage (five point scale) (Lolium perenne (LOLPE) [5]) | ECHCG PRE percentage damage (five point scale) [6] | AVEFA POST percentage damage (five point scale) (Avena fatua (AVEFA) [7]) | LOLPE POST percentage damage (five point scale) (Lolium perenne (LOLPE) [8]) | ECHCG POST percentage damage (five point scale) [9]
